What all share (format): binding
Experiment [1] addresses T1, Xenopus IRBP Module 3 (Xenopus laevis, UniProt Q7SZI7).
T1 construct: cDNAs corresponding to the full-length IRBP, module 1, and module 2 were expressed in pThioHis; modules 3 and 4 were expressed in pTrxFus; made in house; host or cells: E. coli GI724 / GI698 (pTrxFus)
Description: Fluorometric titration (enhancement, quenching). An excerpt:
(§1) Enhancement of retinol fluorescence and quenching of the intrinsic protein fluorescence were used to monitor binding of all-trans retinol to the recombinant IRBPs. We previously derived an equation that is generally useful for describing such quantum yield changes that are consequent upon ligand binding. This equation has been previously applied to the analysis of binding by monitoring the enhancement of retinol fluorescence. In this case, where excitation is at 330 nm and emission is monitored at 480, the fluorescence enhancement (Fenh) depends on the total retinol concentration (Rt), the dissociation constant (Kd ^all-trans), the number of retinol-binding sites per protein molecule (N) and the total protein concentration (Pt).
(§2) Assuming that there is a single type of noninteracting site on the protein, (Fenh) is expected to be linearly related to the concentration of bound retinol molecules. Fenh is given by the relation
(§3) Fenh=C1+C2[Rtall−trans−(Rtall−trans+NPt+Kdall−trans)^2−4NPtRtall−trans] MathType@MTEF@5@5@+=feaafiart1ev1aaatCvAUfKttLearuWrP9MDH5MBPbIqV92AaeXatLxBI9gBaebbnrfifHhDYfgasaacH8akY=wiFfYdH8Gipec8Eeeu0xXdbba9frFj0=OqFfea0dXdd9vqai=hGuQ8kuc9pgc9s8qqaq=dirpe0xb9q8qiLsFr0=vr0=vr0dc8meaabaqaciaacaGaaeqabaqabeGadaaakeaacqWGgbGrdaWgaaWcbaGaemyzauMaemOBa4MaemiAaGgabeaakiabg2da9iabdoeadnaaBaaaleaacqaIXaqmaeqaaOGaey4kaSIaem4qam0aaSbaaSqaaiabikdaYaqabaGcdaWadaqaaiabdkfasnaaDaaaleaacqWG0baDaeaacqWGHbqycqWGSbaBcqWGSbaBcqGHsislcqWG0baDcqWGYbGCcqWGHbqycqWGUbGBcqWGZbWCaaGccqGHsisldaGcaaqaamaabmaabaGaemOuai1aa0baaSqaaiabdsha0bqaaiabdggaHjabdYgaSjabdYgaSjabgkHiTiabdsha0jabdkhaYjabdggaHjabd6gaUjabdohaZbaakiabgUcaRiabd6eaojabdcfaqnaaBaaaleaacqWG0baDaeqaaOGaey4kaSIaem4saS0aa0baaSqaaiabdsgaKbqaaiabdggaHjabdYgaSjabdYgaSjabgkHiTiabdsha0jabdkhaYjabdggaHjabd6gaUjabdohaZbaaaOGaayjkaiaawMcaamaaCaaaleqabaGaeGOmaidaaOGaeyOeI0IaeGinaqJaemOta4Kaemiuaa1aaSbaaSqaaiabdsha0bqabaGccqWGsbGudaqhaaWcbaGaemiDaqhabaGaemyyaeMaemiBaWMaemiBaWMaeyOeI0IaemiDaqNaemOCaiNaemyyaeMaemOBa4Maem4CamhaaaqabaaakiaawUfacaGLDbaaaaa@8490@
(§4) The equation was fit to the data by nonlinear least-squares analysis. To follow the quenching of the protein's intrinsic fluorescence the excitation and emission wavelengths were set to 280 nm and 340 nm, respectively, while the protein was titrated with all-trans retinol. For the quenching studies the inner filter effect was accounted for by graphical correction as previously described. Fluorescence measurements were made using an SLM 8000TM C photon counting spectrofluorometer corrected for wavelength dependence of source energy and detector response.

The target of experiment [2] is T2, Xenopus IRBP Module 4 (Xenopus laevis, UniProt Q7SZI7).
T2 construct: cDNAs corresponding to the full-length IRBP, module 1, and module 2 were expressed in pThioHis; modules 3 and 4 were expressed in pTrxFus; made in house; host or cells: E. coli GI724 / GI698 (pTrxFus)
T2 sequence (Q7SZI7 923-1219): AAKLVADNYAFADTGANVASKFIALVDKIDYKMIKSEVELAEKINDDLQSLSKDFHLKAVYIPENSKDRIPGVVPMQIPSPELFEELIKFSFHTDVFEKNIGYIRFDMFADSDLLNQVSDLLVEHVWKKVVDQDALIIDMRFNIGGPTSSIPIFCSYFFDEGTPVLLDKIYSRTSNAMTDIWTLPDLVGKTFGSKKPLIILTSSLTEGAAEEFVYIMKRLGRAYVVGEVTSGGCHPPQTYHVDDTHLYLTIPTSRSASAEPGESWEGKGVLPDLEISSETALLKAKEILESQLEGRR
Description: Fluorometric titration (enhancement, quenching).
Text: as §1, §2, §3, §4

For experiment [3], the target named is X(1,2)IRBP (Xen IRBP modules 1&2) (Xenopus laevis, UniProt Q7SZI7). Description: Fluorometric titration, retinol fluorescence enhancement, double module. Particulars: ex 330 nm, em 480 nm, protein 0.67 μM.
Sequence of X(1,2)IRBP (Xen IRBP modules 1&2) (Q7SZI7 23-617): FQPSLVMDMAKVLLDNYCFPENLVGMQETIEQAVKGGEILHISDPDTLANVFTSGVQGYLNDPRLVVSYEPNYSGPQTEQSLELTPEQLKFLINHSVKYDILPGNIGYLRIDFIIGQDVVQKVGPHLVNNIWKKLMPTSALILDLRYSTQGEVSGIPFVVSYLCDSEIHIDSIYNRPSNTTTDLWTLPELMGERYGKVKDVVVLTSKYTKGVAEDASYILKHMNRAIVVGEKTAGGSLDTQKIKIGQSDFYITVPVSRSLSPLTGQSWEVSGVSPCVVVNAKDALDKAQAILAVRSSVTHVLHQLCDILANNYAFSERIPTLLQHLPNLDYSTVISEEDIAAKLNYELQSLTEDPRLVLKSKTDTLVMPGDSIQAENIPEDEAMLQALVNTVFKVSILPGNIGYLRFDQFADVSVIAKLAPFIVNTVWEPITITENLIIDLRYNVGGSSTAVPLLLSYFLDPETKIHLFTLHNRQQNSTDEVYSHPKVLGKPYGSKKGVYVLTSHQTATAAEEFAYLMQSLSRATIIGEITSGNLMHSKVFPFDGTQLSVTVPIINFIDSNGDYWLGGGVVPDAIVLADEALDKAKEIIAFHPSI
Text: (§5) Why do the number of sites from individual modules add up to more than that detected in the full-length IRBP? Here we asked whether the number of sites within individual modules could at least predict the number in recombinant proteins consisting of two modules. We had originally anticipated that the sum of sites from individual modules would give the number in such "module pairs". However, this turned out to be not always true. We expressed and purified module combinations 1&2 and 3&4, termed X(1,2)IRBP and X(3,4)IRBP respectively. Binding of all-trans retinol to these module pairs was characterized by fluorometric titrations monitoring retinol-fluorescence enhancement (Figure 10). For X(1,2)IRBP, N = 2.45 ± 0.11 (2.40 sites were predicted from the sum of individual modules 1 plus 2). In contrast, N for X(3,4)IRBP was 1.43 ± 0.21 sites (predicted, 3.83 sites). […] That is, some sites may not be solvent exposed in the intact IRBP as they are within individual modules. […] Therefore it is plausible that some binding sites that are solvent exposed in the individual module are buried in the intact […]. To address this question, ongoing studies in our laboratories are aimed at determining the X-ray crystal structure of IRBPs composed of multiple modules.
(§6) Figure 10 Retinol binding to Xenopus IRBPs consisting of two contiguous modules. Binding of double modules IRBPs with all-trans retinol as followed during titrations by monitoring the increase in retinol fluorescence (excitation, 330 nm; emission, 480 nm). The concentration of the IRBP double module was: modules 1&2, 0.67 μM; modules 3&4, 0.57 μM.
as §1
(§7) Assuming that there is a single type of noninteracting site on the protein, (Fenh) is expected to be linearly related to the concentration of bound retinol molecules. […]
(§8) The equation was fit to the data by nonlinear least-squares analysis. To follow the quenching of the protein's intrinsic fluorescence the excitation and emission wavelengths were set to 280 nm and 340 nm, respectively, while the protein was titrated with all-trans retinol. […]

Experiment [4] deals with X(3,4)IRBP (Xen IRBP modules 3&4) (Xenopus laevis, UniProt Q7SZI7). Described as above. To be noted: ex 330 nm, em 480 nm, protein 0.57 μM.
Sequence of X(3,4)IRBP (Xen IRBP modules 3&4) (Q7SZI7 618-1219): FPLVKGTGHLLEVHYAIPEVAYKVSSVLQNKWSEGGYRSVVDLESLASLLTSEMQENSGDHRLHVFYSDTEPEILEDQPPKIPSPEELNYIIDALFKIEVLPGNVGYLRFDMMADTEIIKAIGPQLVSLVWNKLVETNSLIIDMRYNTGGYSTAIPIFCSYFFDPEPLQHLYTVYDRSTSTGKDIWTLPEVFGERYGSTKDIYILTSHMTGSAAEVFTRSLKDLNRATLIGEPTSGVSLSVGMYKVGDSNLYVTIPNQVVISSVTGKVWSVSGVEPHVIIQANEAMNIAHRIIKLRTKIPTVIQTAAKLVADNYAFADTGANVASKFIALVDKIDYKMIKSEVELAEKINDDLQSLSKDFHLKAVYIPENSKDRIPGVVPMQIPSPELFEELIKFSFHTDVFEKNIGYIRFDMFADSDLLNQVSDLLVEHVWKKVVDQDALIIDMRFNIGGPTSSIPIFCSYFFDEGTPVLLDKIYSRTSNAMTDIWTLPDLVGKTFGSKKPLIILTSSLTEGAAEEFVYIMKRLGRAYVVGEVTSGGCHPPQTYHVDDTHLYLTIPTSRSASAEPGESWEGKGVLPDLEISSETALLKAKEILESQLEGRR
Text: as §5, §6, §1, §7, §8

Experiment [5] deals with Xenopus IRBP Module 1 (Xenopus laevis, UniProt Q7SZI7). Description: Fluorometric titration (enhancement, quenching). On the set-up: cDNAs corresponding to the full-length IRBP, module 1, and module 2 were expressed in pThioHis; modules 3 and 4 were expressed in pTrxFus; made in house; host or cells: E. coli Top10 (pThioHis).
Sequence of Xenopus IRBP Module 1 (Q7SZI7 23-315): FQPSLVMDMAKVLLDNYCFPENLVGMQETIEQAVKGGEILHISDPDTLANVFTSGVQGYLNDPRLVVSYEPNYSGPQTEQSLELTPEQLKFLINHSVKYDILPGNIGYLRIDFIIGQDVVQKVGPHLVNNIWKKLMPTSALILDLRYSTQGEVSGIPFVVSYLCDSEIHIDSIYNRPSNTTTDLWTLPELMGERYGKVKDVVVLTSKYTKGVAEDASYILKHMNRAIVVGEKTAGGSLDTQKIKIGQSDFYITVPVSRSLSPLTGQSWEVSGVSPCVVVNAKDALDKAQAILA
Text: as §1, §2, §3, §4

Where [6] appears, read: all-trans retinol fluorescence enhancement, ex 330 nm, em 480 nm.
Setting [7] is: all-trans retinol fluorescence enhancement, ex 330 nm, em 480 nm, read-out: Kd, Enhancement.
Setting [8] is: quenching by all-trans retinol, ex 280 nm, em 340 nm, read-out: Kd, Quenching.

Results on 1 compound are retold here after publication PMC2000878, “Module structure of interphotoreceptor retinoid-binding protein (IRBP) may provide bases for its complex role in the visual cycle – structure/function study of Xenopus IRBP” (BMC Biochemistry, 2007).

Like-named read-outs stand apart in the source and are kept apart here.

T1 sequence (Q7SZI7 616-922): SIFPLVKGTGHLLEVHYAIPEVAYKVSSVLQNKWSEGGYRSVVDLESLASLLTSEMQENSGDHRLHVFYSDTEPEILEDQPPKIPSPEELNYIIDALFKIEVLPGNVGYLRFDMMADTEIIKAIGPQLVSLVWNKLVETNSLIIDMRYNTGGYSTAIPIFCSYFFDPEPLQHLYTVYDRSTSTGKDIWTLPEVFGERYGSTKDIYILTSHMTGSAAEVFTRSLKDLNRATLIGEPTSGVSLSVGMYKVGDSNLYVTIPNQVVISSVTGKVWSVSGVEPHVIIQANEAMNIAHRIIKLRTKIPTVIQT

For `CC1=C(/C=C/C(C)=C/C=C/C(C)=C/CO)C(C)(C)CCC1` [all-trans retinol], the “Binding sites (N), Enhancement” value in experiment [1] (setting [6]) was determined as 1.83 ± 0.42; in experiment [2] (setting [6]), 2.06 ± 0.53; in experiment [5] (setting [6]), 0.83 ± 0.15. For the same compound, the Kd (usually a measure of binding affinity in units of concentration) worked out at 1.18 ± 0.41 µM in experiment [1] (setting [7]); 0.31 ± 0.04 µM in experiment [1] (setting [8]); 1.79 ± 0.54 µM in experiment [2] (all-trans retinol fluorescence enhancement, ex 330 nm, em 480 nm, absence of 11-cis retinaldehyde, read-out: Kd, Enhancement); 0.64 ± 0.05 µM in experiment [2] (setting [8]); 0.049 ± 0.023 µM in experiment [3]; 0.19 ± 0.05 µM in experiment [4]. The Kd came to 0.44 ± 0.13 µM in experiment [5] (setting [7]) and 0.35 ± 0.08 µM in experiment [5] (setting [8]). Moreover, the “Binding sites (N)” value was 2.45 ± 0.11 in experiment [3] and 1.43 ± 0.21 in experiment [4].
